Assay results taken from patent US20060234323A1, “Luminescent ATP detection with extended linearity” (priority 2005, published 2006).
Where two headings read alike, the source gives them in different places.

Key:
[1] = target: thermostable luciferase (Luc146-1H2) (Photuris pensylvanica, UniProt Q27757); assay type: biochemical, Photuris pennsylvanica
[2] = target: wild type luciferase from Photinus pyralis (QuantiLum recombinant luciferase) (Photinus pyralis, UniProt P08659); assay type: biochemical
[3] = No PPi, 1 mM AMP, 2 mM 5′AMPS, 2 mM ADP S, 5 mM dATP, ATP 0 to 1.67 mM
[4] = with 50 μM PPi, 1 mM AMP, 2 mM 5′AMPS, 2 mM ADP S, 5 mM dATP, ATP 0 to 1.67 mM
[5] = NT (no inhibitor), metal salt replacing MgSO4, MgSO4 reactions employed NaATP, read-out: ATP Km
[6] = with AMP + PPi, metal salt replacing MgSO4, MgSO4 reactions employed NaATP, read-out: ATP Km
[7] = with AMP, metal salt replacing MgSO4, MgSO4 reactions employed NaATP, read-out: ATP Km
[8] = with PPi, metal salt replacing MgSO4, MgSO4 reactions employed NaATP, read-out: ATP Km

Sequence of thermostable luciferase (Luc146-1H2) (Q27757 whole entry): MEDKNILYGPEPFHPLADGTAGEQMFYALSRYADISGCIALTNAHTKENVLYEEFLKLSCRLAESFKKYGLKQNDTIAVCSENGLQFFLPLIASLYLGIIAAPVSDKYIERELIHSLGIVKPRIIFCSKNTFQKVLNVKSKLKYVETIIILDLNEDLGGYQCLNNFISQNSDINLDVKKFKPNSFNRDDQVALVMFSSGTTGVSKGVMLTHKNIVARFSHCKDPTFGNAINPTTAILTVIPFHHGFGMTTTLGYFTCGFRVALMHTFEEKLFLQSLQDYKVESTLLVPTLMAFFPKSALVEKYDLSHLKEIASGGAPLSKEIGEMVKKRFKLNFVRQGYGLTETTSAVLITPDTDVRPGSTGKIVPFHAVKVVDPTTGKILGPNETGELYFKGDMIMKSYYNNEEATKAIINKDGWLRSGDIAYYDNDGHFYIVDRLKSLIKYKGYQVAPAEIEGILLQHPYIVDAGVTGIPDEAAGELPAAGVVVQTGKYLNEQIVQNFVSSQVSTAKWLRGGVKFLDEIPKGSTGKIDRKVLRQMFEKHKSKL
Sequence of wild type luciferase from Photinus pyralis (QuantiLum recombinant luciferase) (P08659 whole entry): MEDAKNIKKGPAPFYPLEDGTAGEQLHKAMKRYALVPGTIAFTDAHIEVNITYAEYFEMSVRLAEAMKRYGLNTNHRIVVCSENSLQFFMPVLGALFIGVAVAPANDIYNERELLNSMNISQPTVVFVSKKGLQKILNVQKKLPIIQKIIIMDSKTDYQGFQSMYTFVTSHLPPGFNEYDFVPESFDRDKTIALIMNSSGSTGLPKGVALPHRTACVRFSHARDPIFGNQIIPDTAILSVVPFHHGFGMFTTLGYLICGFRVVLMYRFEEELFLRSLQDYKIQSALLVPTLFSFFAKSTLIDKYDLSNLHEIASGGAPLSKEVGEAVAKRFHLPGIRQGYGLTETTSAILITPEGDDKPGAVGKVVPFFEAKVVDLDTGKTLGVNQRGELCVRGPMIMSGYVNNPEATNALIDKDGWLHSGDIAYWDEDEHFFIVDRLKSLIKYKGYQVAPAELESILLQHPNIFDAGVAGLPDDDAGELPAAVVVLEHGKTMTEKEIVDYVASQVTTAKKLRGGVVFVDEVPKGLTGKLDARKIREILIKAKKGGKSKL

Compound | increase of the luciferase Km for ATP [1] | type of inhibition of luciferase with respect to ATP [1] | Km [1, 3] | Km [1, 4] | Km [2, 5] | Km [2, 6] | Km [2, 7] | Km [2, 8] | further results
Nc1ncnc2c1ncn2[C@@H]1O[C@H](COP(=O)(O)OP(O)(O)=S)[C@@H](O)[C@H]1O [ADP S, adenosine 5′-[β-thio] diphosphate] | ~10 fold | competitive inhibitors | 93 µM | 581 µM |  |  |  |  | 
[Cl-].[Cl-].[Mg+2] [MgCl2] |  |  |  |  | 115 µM | 213 µM | 56 µM | 276 µM | 
O=S(=O)([O-])[O-].[Mg+2] [MgSO4] |  |  |  |  | 39 µM | 93 µM | 15 µM | 128 µM | 
Nc1ncnc2c1ncn2[C@@H]1O[C@H](COP(=O)(O)O)[C@@H](O)[C@H]1O [AMP, adenosine monophosphate] | ~10 fold | competitive inhibitors | 109 µM | 1700 µM |  |  |  |  | Km ([1]; read-out: ATP Km, 1 mM AMP, ATP range 0-1.67 mM): 109 µM; Km ([1]; read-out: Km for ATP, ATP range 0 to 0.09 mM, AMP = 1 mM, PPi = 50 μM, hyperbolic curve fit): 232 µM; Km ([1]; read-out: Km for ATP, ATP range 0 to 0.3 mM, AMP = 1 mM, PPi = 50 μM, hyperbolic curve fit): 243 µM; Km ([1]; read-out: Km for ATP, ATP range 0 to 0.8 mM, AMP = 1 mM, PPi = 50 μM, hyperbolic curve fit): 203 µM; Km ([1]; read-out: Km for ATP, ATP range 0 to 2.5 mM, AMP = 1 mM, PPi = 50 μM, hyperbolic curve fit): 115 µM; decrease in Km ([2]; 3 mM AMP alone, compared to reactions with no PPi or AMP): 65%
Nc1ncnc2c1ncn2[C@@H]1O[C@H](COP(O)(O)=S)[C@@H](O)[C@H]1O [5′AMPS, adenosine 5′-O-thiomonophosphate] | ~10 fold | competitive inhibitors | 91 µM | 1070 µM |  |  |  |  | 
[Cl-].[Cl-].[Sr+2] [SrCl2] |  |  |  |  | 373 µM | 2650 µM | 110 µM | 3290 µM | 
[Cl-].[Cl-].[Zn+2] [ZnCl2] |  |  |  |  | 63 µM | 2390 µM | 585 µM | 109 µM | 
O=P(O)(O)OP(=O)(O)O [PPi] | ≤ 2 fold | noncompetitive |  |  |  |  |  |  | Km ([1]; 50 μM PPi alone (NT row, no adenosine derivative), ATP 0 to 1.67 mM, read-out: Km): 4 µM; Km ([1]; ATP range 0 to 0.09 mM, AMP = 1 mM, PPi = 50 μM, hyperbolic curve fit, read-out: Km for ATP): 6 µM; Km ([1]; ATP range 0 to 0.3 mM, AMP = 1 mM, PPi = 50 μM, hyperbolic curve fit, read-out: Km for ATP): 6 µM; Km ([1]; ATP range 0 to 0.8 mM, AMP = 1 mM, PPi = 50 μM, hyperbolic curve fit, read-out: Km for ATP): 6 µM; Km ([1]; ATP range 0 to 2.5 mM, AMP = 1 mM, PPi = 50 μM, hyperbolic curve fit, read-out: Km for ATP): 5 µM; Km ([2]; 0 mM AMP, 50 μM PPi, ATP 0 to 2.5 mM, MgATP, read-out: Km): 121 µM; Km ([2]; 0 mM AMP, 100 μM PPi, ATP 0 to 2.5 mM, MgATP, read-out: Km): 130 µM; Km ([2]; 0 mM AMP, 200 μM PPi, ATP 0 to 2.5 mM, MgATP, read-out: Km): 146 µM; increase in Km ([2]; 200 μM PPi alone, compared to reactions with no PPi or AMP): 28%; type of inhibition of luciferase with respect to ATP ([2]; native beetle luciferase, in the presence of certain divalent metals): competitive
[Cl][Ni][Cl] [NiCl2] |  |  |  |  | 906 µM | 1540 µM | 1100 µM | 2420 µM | increase of the Km for ATP ([1]; non-Mg metal employed with PPi): about 10 fold
[Ca+2].[Cl-].[Cl-] [CaCl2] |  |  |  |  | 1910 µM | 1040 µM | 980 µM | 1450 µM | 
[Cl][Mn][Cl] [MnCl2] |  |  |  |  | 120 µM | 111 µM | 44 µM | 170 µM | 
Nc1ncnc2c1ncn2[C@H]1C[C@H](O)[C@@H](COP(=O)(O)OP(=O)(O)OP(=O)(O)O)O1 [dATP, deoxyadenosine triphosphate] | ~10 fold | competitive inhibitors | 127 µM | 232 µM |  |  |  |  | 
